The values below are quoted from earlier work in US4162311A, “Medicinal preparation with pronounced vegetotropic and antiepileptic effect for treating psychoneurotic disorders” (priority 1977, dated 1979).

In data set [1] the test system is convulsant effects of corasole and caffeine. Conditions: mice; comparison drug; cited from earlier work.
For data set [2] the following is noted: cited from earlier work; for effect of other treatments: aforesaid diseases; for vegetotropic and antiepileptic effect: among tranquilizers; for relaxing effect and sluggishness: taken over prolonged periods of time.

For the compound `COC(=O)[C@H]1[C@H]2C[C@@H]3c4[nH]c5cc(OC)ccc5c4CCN3C[C@H]2C[C@@H](OC(=O)c2cc(OC)c(OC)c(OC)c2)[C@@H]1OC` [reserpine], the “sensitivity to convulsant effects of corasole and caffeine” value in data set [1] was “increases the sensitivity of mice”. As for `CCN(CC)CCOC(=O)c1ccc(N)cc1` [novocain], the “effect of other treatments” value in data set [2] is “only a limited and short-lived effect”. Regarding `[Mg+2].[O-2]` [magnesia], in data set [2], the “effect of other treatments” value is “only a limited and short-lived effect”.

As to `CNC1=Nc2ccc(Cl)cc2C(c2ccccc2)=[N+]([O-])C1` [chlorodiazepoxide], in data set [2], the “vegetotropic and antiepileptic effect” value is “most pronounced vegetotropic and antiepileptic effect”; the “relaxing effect and sluggishness” value was “manifest a relaxing effect and produce sluggishness”.

`CN1C(=O)CN=C(c2ccccc2)c2cc(Cl)ccc21` [diazepam]: in data set [2], the “vegetotropic and antiepileptic effect” value is “most pronounced vegetotropic and antiepileptic effect”; the “relaxing effect and sluggishness” value is “manifest a relaxing effect and produce sluggishness”.
